According to US7074789B2, “Kinase inhibitors” (Amgen Inc., priority 1999, dated 2006):

Tests used:
Format in all cases: biochemical
[1] = molecular target: T1, Lck (Homo sapiens, UniProt P06239); assay: Kinase inhibition assay (33P transfer), Lck; settings: Table 3, class symbols; read-out: Lck-1
T1 construct: Kinases are expressed as either kinase domains or full length constructs; made in house
Procedure, shortened: (§1)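 Filterless plate radiometric format: immobilized poly(Glu,Tyr) 4:1 or poly(Arg,Ser) 3:1, 33P-labelled ATP, tagged recombinant kinase (some with regulatory partners). Incorporated label counted after phosphoric acid wash.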

[2] = molecular target: T2, Itk (Homo sapiens, UniProt Q08881); assay: Kinase inhibition assay (33P transfer), Itk; settings: Table 3, class symbols; read-out: Itk-1
T2 construct: Kinases are expressed as either kinase domains or full length constructs; made in house
T2 sequence (Q08881 1-620): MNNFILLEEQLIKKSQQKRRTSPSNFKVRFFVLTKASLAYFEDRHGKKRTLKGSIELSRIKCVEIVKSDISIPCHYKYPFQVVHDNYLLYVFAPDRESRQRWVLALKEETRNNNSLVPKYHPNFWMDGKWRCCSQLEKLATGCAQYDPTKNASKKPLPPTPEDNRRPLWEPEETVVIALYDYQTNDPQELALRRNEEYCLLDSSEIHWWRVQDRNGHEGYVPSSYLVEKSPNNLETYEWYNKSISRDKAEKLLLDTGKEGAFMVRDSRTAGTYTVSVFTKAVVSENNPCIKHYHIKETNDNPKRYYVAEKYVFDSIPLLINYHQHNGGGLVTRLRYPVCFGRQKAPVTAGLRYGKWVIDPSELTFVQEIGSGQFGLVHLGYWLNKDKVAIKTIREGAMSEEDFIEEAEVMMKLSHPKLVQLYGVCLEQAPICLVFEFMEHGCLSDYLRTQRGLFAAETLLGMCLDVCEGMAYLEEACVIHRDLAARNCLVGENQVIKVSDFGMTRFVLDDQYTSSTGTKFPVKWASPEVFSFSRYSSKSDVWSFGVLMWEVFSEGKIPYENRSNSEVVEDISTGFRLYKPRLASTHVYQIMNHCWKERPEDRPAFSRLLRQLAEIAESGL
Procedure, shortened: (§2)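 IC50: inhibitor concentration lowering 33P incorporation into immobilised substrate by 50%. Label transferred from ATP to poly(Glu,Tyr) 4:1 or poly(Arg,Ser) 3:1 is measured after a 0.5% phosphoric acid wash by liquid scintillation.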

[3] = molecular target: T3, PDGFRB (Homo sapiens, UniProt P09619); assay: Kinase inhibition assay (33P transfer), PDGFRB; settings: read-out: PDGFRB-1
T3 construct: Kinases are expressed as either kinase domains or full length constructs; made in house

[4] = molecular target: T4, IGFR-1 (Homo sapiens, UniProt P08069); assay: Kinase inhibition assay (33P transfer), IGFR-1; settings: Table 2, class symbols A-E
T4 construct: Kinases are expressed as either kinase domains or full length constructs; made in house
T4 sequence (P08069 31-1367): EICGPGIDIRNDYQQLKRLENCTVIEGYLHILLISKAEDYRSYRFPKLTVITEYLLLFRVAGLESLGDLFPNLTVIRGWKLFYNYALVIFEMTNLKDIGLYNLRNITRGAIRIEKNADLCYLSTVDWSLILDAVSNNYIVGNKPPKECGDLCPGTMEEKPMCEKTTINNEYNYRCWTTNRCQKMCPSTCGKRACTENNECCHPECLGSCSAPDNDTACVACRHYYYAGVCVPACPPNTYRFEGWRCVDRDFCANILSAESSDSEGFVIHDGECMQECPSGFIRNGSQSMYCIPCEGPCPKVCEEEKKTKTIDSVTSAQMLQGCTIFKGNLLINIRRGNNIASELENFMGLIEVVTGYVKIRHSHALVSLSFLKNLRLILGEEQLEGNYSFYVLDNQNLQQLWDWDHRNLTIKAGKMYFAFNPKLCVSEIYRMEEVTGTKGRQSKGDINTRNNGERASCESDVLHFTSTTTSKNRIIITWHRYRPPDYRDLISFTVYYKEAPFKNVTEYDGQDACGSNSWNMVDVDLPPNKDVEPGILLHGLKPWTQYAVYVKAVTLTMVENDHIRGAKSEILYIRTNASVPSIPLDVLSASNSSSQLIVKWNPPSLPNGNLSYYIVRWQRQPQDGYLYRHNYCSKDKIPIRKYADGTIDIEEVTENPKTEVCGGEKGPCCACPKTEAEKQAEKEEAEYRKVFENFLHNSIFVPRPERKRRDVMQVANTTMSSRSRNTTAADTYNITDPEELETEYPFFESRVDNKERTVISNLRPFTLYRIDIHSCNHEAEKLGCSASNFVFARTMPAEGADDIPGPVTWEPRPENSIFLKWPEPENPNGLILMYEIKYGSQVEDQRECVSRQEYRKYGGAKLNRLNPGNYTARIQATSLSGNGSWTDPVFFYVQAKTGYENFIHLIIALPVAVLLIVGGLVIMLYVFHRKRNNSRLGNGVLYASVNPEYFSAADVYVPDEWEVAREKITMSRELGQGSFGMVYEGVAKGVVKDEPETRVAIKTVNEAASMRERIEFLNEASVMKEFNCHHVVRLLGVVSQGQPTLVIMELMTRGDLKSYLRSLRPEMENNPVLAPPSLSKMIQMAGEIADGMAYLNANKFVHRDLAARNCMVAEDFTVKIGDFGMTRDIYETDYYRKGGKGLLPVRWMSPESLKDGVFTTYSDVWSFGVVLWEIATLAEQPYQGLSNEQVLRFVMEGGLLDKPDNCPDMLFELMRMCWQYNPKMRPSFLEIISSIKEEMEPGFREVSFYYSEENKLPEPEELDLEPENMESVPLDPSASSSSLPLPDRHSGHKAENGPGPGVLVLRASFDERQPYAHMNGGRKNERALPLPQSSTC

[5] = molecular target: T5, ErbB2 (Homo sapiens, UniProt P04626); assay: Kinase inhibition assay (33P transfer), ErbB2; settings: read-out: ErbB2-2
T5 construct: Kinases are expressed as either kinase domains or full length constructs; made in house
Procedure, shortened: as §2

[6] = molecular target: T6, EGFR (Homo sapiens, UniProt P00533); assay: Kinase inhibition assay (33P transfer), EGFR; settings: Table 2, class symbols A-E; read-out: EGFR-1
T6 construct: Kinases are expressed as either kinase domains or full length constructs; made in house
Procedure, shortened: as §2

[7] = molecular target: T7, Kdr (Homo sapiens, UniProt P35968); assay: Kinase inhibition assay (33P transfer), Kdr; settings: Table 3, class symbols; read-out: KDR-1
T7 construct: Kinases are expressed as either kinase domains or full length constructs; made in house
T7 sequence (P35968 20-1356, species assumed): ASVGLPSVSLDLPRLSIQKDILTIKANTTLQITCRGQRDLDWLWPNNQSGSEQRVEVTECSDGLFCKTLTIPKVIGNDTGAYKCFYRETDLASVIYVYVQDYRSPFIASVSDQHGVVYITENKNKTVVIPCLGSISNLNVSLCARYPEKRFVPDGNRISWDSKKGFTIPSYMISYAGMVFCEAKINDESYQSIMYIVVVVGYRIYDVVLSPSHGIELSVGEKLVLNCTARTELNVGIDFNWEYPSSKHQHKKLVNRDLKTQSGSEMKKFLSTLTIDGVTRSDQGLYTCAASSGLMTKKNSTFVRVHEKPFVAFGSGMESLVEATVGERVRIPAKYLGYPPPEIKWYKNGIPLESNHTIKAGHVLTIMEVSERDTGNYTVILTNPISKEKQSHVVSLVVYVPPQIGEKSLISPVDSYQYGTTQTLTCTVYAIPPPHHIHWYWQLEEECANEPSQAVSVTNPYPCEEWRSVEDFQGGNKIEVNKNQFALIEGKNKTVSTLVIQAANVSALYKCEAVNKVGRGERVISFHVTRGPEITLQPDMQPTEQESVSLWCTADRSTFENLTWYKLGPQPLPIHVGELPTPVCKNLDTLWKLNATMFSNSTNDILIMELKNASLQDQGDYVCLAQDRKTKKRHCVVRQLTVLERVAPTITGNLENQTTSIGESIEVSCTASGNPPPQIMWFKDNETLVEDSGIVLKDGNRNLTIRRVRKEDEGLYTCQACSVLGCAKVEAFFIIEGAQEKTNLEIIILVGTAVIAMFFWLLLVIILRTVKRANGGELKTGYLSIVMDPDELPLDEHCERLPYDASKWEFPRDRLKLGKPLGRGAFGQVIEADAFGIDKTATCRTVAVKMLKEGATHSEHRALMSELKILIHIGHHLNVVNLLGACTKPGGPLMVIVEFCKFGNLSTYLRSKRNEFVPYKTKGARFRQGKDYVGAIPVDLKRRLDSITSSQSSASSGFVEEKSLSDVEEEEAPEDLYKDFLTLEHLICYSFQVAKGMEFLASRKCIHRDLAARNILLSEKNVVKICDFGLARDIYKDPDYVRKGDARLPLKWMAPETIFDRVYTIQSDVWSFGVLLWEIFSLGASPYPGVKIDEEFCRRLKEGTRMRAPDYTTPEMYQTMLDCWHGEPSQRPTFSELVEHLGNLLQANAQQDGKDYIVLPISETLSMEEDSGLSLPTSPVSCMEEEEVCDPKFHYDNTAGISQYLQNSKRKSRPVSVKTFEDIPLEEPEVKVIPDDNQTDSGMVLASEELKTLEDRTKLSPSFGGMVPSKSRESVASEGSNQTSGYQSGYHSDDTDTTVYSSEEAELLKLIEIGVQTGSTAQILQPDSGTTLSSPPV
Procedure, shortened: as §1

[8] = molecular target: T8, c-Met (Homo sapiens, UniProt P08581); assay: Kinase inhibition assay (33P transfer), c-Met; settings: Table 2, class symbols A-E; read-out: Met-1
T8 construct: Kinases are expressed as either kinase domains or full length constructs; made in house
T8 sequence (P08581 25-1390): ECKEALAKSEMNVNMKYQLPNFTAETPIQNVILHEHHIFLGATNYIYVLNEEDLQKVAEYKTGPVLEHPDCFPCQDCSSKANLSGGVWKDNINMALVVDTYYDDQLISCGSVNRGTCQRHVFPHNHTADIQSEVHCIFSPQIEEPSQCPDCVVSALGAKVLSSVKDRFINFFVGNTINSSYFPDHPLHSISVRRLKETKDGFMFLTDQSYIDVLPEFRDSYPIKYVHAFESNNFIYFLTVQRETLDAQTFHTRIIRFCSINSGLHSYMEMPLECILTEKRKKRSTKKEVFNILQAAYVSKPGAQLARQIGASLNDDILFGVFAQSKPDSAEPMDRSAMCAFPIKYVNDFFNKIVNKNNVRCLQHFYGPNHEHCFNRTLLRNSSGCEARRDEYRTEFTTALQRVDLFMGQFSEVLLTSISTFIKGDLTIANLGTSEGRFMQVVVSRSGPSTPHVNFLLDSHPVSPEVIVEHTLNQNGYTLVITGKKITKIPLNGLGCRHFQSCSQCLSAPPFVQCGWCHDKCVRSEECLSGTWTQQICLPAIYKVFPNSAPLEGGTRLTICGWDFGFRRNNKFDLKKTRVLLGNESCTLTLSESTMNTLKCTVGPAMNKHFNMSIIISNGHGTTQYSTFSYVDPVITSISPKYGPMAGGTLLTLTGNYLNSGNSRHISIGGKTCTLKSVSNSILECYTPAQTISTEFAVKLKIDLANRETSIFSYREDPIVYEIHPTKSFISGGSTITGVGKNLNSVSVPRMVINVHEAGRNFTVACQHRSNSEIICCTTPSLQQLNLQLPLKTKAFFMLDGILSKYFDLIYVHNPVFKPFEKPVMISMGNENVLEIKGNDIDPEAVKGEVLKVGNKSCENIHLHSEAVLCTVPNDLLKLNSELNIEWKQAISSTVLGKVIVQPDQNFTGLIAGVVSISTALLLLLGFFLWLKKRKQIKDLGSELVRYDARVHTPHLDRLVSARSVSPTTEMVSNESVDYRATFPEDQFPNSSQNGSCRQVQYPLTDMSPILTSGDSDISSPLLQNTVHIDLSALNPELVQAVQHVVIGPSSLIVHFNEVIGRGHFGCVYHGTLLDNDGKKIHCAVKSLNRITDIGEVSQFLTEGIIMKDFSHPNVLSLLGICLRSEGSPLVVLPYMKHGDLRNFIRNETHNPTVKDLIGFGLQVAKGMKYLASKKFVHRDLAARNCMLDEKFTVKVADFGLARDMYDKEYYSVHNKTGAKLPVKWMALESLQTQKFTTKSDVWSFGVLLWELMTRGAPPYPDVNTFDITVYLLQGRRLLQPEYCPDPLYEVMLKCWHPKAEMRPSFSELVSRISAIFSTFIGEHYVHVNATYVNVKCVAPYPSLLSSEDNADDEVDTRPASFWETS
Procedure, shortened: as §2

[9] = molecular target: T9, AKT (Homo sapiens, UniProt Q9Y243); assay: Kinase inhibition assay (33P transfer), AKT; settings: Table 2, class symbols A-E; read-out: AKT3-1
T9 construct: Kinases are expressed as either kinase domains or full length constructs; made in house
T9 sequence (Q9Y243 whole entry, the tested form may be a part): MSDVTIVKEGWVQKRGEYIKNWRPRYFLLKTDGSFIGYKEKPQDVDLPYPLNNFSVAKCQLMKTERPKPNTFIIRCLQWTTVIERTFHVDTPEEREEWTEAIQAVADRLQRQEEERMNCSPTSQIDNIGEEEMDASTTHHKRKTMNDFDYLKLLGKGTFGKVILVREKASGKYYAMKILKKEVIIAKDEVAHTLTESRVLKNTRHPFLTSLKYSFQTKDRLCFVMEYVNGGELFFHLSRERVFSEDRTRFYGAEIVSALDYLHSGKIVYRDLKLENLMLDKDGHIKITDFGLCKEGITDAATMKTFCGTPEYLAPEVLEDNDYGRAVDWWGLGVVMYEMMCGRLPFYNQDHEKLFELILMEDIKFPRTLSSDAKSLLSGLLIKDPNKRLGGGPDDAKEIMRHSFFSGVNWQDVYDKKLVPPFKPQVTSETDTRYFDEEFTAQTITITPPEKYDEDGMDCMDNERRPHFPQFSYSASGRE
Procedure, shortened: as §1

[10] = molecular target: T10, Zap-70 (Homo sapiens, UniProt P43403); assay: Kinase inhibition assay (33P transfer), Zap-70; settings: Table 3, class symbols; read-out: Zap-1
T10 construct: Kinases are expressed as either kinase domains or full length constructs; made in house
T10 sequence (P43403 1-619): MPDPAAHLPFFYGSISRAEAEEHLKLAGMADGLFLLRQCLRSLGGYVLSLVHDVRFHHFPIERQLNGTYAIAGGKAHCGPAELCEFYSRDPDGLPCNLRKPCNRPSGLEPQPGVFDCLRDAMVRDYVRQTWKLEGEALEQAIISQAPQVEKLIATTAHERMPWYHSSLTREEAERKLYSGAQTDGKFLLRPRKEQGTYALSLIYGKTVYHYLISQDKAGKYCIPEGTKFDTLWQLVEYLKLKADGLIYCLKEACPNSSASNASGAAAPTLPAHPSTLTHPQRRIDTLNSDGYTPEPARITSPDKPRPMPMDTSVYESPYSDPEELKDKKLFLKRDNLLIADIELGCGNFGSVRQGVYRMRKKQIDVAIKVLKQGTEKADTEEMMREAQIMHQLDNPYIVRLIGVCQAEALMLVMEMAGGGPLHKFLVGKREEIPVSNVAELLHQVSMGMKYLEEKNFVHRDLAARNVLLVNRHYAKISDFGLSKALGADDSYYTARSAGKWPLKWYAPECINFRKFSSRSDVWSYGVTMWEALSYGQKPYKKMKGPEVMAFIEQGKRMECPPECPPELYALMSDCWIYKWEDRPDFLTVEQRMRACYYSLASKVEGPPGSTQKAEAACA
Procedure, shortened: as §1

T1 sequence (P06239 whole entry, species assumed, the tested form may be a part): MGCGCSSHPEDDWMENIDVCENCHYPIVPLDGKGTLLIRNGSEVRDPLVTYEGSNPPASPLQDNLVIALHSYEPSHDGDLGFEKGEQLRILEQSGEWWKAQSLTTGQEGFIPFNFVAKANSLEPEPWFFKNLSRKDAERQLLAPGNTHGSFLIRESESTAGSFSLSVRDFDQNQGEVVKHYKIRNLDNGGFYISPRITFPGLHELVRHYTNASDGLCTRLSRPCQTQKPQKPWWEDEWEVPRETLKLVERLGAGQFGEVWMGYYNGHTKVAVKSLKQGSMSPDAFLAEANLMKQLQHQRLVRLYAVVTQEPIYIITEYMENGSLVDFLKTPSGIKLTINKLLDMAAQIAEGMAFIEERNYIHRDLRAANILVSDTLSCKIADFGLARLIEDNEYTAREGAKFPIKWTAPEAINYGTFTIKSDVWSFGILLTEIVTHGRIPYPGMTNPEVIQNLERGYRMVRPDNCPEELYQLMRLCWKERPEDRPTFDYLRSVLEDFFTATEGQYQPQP

Row | IC50 [1] [µM] | IC50 [2] [µM] | IC50 [3] [µM] | IC50 [4] [µM] | IC50 [5] [µM] | IC50 [6] [µM] | IC50 [7] [µM] | IC50 [8] [µM] | IC50 [9] [µM] | IC50 [10] [µM] | Compound
1 | > 10.4 | 0.921 to 5.52 | 0.921 to 5.52 | 0.921 to 5.52 | 0.921 to 5.52 | 0.921 to 5.52 | < 0.921 | 0.921 to 5.52 | 8.06 to 10.4 | 5.52 to 8.06 | O=C(O)CCNC(=O)c1ccc(Nc2ncnc(Nc3cc(-c4ccco4)[nH]n3)n2)cc1 [Compound 885]
2 | 1.03 to 6.16 | < 1.03 | > 11.6 | 1.03 to 6.16 | 1.03 to 6.16 | < 1.03 | < 1.03 | < 1.03 | 1.03 to 6.16 | 1.03 to 6.16 | O=C(O)/C=C/c1ccc(Nc2ncnc(Nc3cc(-c4ccco4)[nH]n3)n2)cc1 [Compound 886]
3 | 1.02 to 6.13 | 6.13 to 8.94 | 1.02 to 6.13 | < 1.02 | 1.02 to 6.13 | < 1.02 | < 1.02 | < 1.02 | 1.02 to 6.13 | > 11.5 | O=C(O)CCc1cccc(Nc2ncnc(Nc3cc(-c4ccco4)[nH]n3)n2)c1 [Compound 887]
4 | 5.63 to 8.21 | < 0.938 | 0.938 to 5.63 | < 0.938 | 0.938 to 5.63 | 0.938 to 5.63 | < 0.938 | < 0.938 | 0.938 to 5.63 | > 10.6 | CNS(=O)(=O)Cc1ccc(Nc2ncnc(Nc3cc(-c4ccco4)[nH]n3)n2)cc1 [Compound 888]
5 | > 14.5 | 1.29 to 7.73 | 1.29 to 7.73 | 1.29 to 7.73 | 1.29 to 7.73 | 1.29 to 7.73 | 1.29 to 7.73 | 1.29 to 7.73 | > 14.5 | > 14.5 | c1coc(-c2cc(Nc3ncnc(Nc4nc[nH]n4)n3)n[nH]2)c1 [Compound 889]
6 | > 9.52 | > 9.52 | 0.846 to 5.08 | > 9.52 | > 9.52 | > 9.52 | 7.41 to 9.52 | > 9.52 | > 9.52 | > 9.52 | COc1cc(Nc2ncnc(-c3cccnc3NCC(C)c3ccccc3)n2)cc(OC)c1OC (stereo not shown) [Compound 890]
7 | 5.95 to 8.68 | 0.991 to 5.95 | < 0.991 | < 0.991 | < 0.991 | 0.991 to 5.95 | < 0.991 | < 0.991 | 0.991 to 5.95 | 0.991 to 5.95 | c1coc(-c2cc(Nc3ncnc(Nc4ccc(-c5csnn5)cc4)n3)n[nH]2)c1 [Compound 891]
8 | 1.11 to 6.64 | 9.68 to 12.4 | < 1.11 | > 12.4 | 1.11 to 6.64 | < 1.11 | 1.11 to 6.64 | 1.11 to 6.64 | > 12.4 | > 12.4 | CCOc1cccc(Nc2ncnc(N3CCCc4cc(C)ccc43)n2)c1 [Compound 892]
9 | > 12.7 | > 12.7 | 1.13 to 6.79 | > 12.7 | > 12.7 | 1.13 to 6.79 | > 12.7 | 1.13 to 6.79 | 1.13 to 6.79 | > 12.7 | Cc1ccc2c(c1)CCCN2c1ncnc(Nc2ccc(F)c(F)c2)n1 [Compound 893]
10 | > 11.9 | 9.23 to 11.9 | < 1.05 | > 11.9 | > 11.9 | 6.33 to 9.23 | 1.05 to 6.33 | > 11.9 | > 11.9 | > 11.9 | COc1ccc(Nc2ncnc(Nc3ccc4c(c3)C(=O)OC4)n2)cc1OC [Compound 894]
